Experimental data: patent US20100249112A1, “COMBINATION OF CHK AND PARP INHIBITORS FOR THE TREATMENT OF CANCERS” (ASTRAZENECA R&D, priority 2007, published 2010)
Read-outs that look alike come from different tables or passages of the source.

Columns and labels:
[1] = system: SW 620 tumors; assay: SW 620 tumor growth inhibition in female nude mice; type: in vivo; settings: 3 weeks
Protocol: (§1) SW 620 tumors were staged in female nude mice as described in Chapter 31 “In vivo Tumor response End Points” by B. A. Teicher (see “Tumor Models in Cancer Research” edited by Beverly A. Teicher, p596. Published by Humana Press Inc. 2002). Treatment started when tumors reached ˜170 mm^3. There were 6 groups in this study with n=10/group. PARP inhibitor 4-[3-(4-Cyclopropanecarbonyl-piperazine-1-carbonyl)-4-fluoro-benzyl]-2H-phthalazin-1-one was given 5 times weekly at 50 mg/kg PO. CHK inhibitor 5-(3-Fluoro-phenyl)-3-ureido-thiophene-2-carboxylic acid (S)-piperidin-3-ylamide was given at 12.5 mg/kg and 25 mg/kg twice weekly IV. The combination groups received PARP inhibitor at 50 mg/kg (5 times a week) and, 2 hours later, the CHK inhibitor at 12.5 or 25 mg/kg (twice a week). Mice received 3 weeks of treatment. Overall, treatment was well tolerated except in one case where a mouse was receiving a CHK inhibitor in the 25 mg/kg group it was found dead prior to study endpoint.

[2] = system: SW620 cell line; assay: MTS cell viability assay, CHK-PARP combination, SW620; type: cell-based; settings: for IC50: Homo sapiens, SW-620, 96 h
Protocol: (§2) Combination experiments were carried out to assess the ability of a CHK inhibitor, i.e., 5-(3-Fluoro-phenyl)-3-ureido-thiophene-2-carboxylic acid (S)-piperidin-3-ylamide, to sensitize cells to a PARP inhibitor, i.e., 4-[3-(4-Cyclopropanecarbonyl-piperazine-1-carbonyl)-4-fluoro-benzyl]-2H-phthalazin-1-one, using a cell viability endpoint.
(§3) The cell lines used in this study were SW620, which endogenously express mutant p53, and NCI-H460dominant negative p53 (NCI-H460dnp53), which are stably transfected to express dominant negative p53. Cells were seeded in 96-well plates on day 0 and treated with either a single drug or simultaneously with both drugs for 4 days beginning on Day 1.
(§4) For sequential addition, either the CHK inhibitor i.e., 5-(3-Fluoro-phenyl)-3-ureido-thiophene-2-carboxylic acid (S)-piperidin-3-ylamide, or the PARP inhibitor, i.e., 4-[3-(4-Cyclopropanecarbonyl-piperazine-1-carbonyl)-4-fluoro-benzyl]-2H-phthalazin-1-one, were added to cells for 24 hours beginning on Day 1, followed by addition of the other drug on Day 2, and exposure to both drugs continued for an additional 72 hours. […] Cells were dosed with the PARP inhibitor to generate a full dose-response curve. See Table 1 for an example of the drug concentrations used in each cell line.
(§5) Cell viability was measured on day 5 using an MTS colorimetric assay. Dose (concentration of drug used, uM) vs. Fraction unaffected (Fu) for PARP alone versus in combination were plotted. Replicate points for the constant concentration of the CHK inhibitor were also plotted. Data were analyzed by comparing the dose-response curve of the single agent to that for the combination.

[3] = system: NCI-H460dnp53 cell line; assay: MTS cell viability assay, CHK-PARP combination, NCI-H460dnp53; type: cell-based
Protocol: as §2, §3, §4, §5

[4] = Tolerability / max weight loss in the SW 620 tumor study; type: in vivo; settings: for Max weight loss: 3 weeks, female nude mice
Protocol: as §1

IC50 ([2]; constant CHK inhibitor 0.28 uM, simultaneous, 4 days, from 2 independent experiments, not directly comparable, read-out: IC50 of PARP inhibitor, CHK inhibitor + PARP inhibitor simultaneous) [µM] | IC50 ([2]; single agent, 4 days exposure, representative, 3 experiments, read-out: IC50 of PARP inhibitor alone) [µM] | IC50 ([3]; 96 h, constant CHK inhibitor 0.33 uM, simultaneous addition, 4 days, 3 experiments, read-out: IC50 of PARP inhibitor, CHK inhibitor + PARP inhibitor simultaneous) [µM] | IC50 ([3]; 96 h, single agent, 4 days exposure, representative, 3 experiments, read-out: IC50 of PARP inhibitor alone) [µM] | IC50 ([3]; CHK inhibitor 24 hours, then both drugs for additional 72 hours, 1 experiment, read-out: IC50 of PARP inhibitor, CHK inhibitor followed by PARP inhibitor) [µM] | IC50 ([3]; PARP inhibitor 24 hours, then both drugs for additional 72 hours, 1 experiment, read-out: IC50 of PARP inhibitor, PARP inhibitor followed by CHK inhibitor) [µM] | Structure (SMILES) | Tumor Growth Inhibition % ([1]; 50 mg/kg PO 5 times weekly, p > 0.1) [%] | Tumor Growth Inhibition % ([1]; 12.5 mg/kg twice weekly IV, p > 0.05) [%] | Tumor Growth Inhibition % ([1]; 25 mg/kg twice weekly IV, p > 0.05) [%] | Activity of CHK inhibitor as a single agent at the constant concentration used ([2]; 0.28 uM, determined previously) | Max weight loss ([4]; 12.5 mg/kg twice weekly IV) [%] | Death prior to study endpoint ([4]; 25 mg/kg group, one mouse) | Max weight loss ([4]; 25 mg/kg twice weekly IV) [%] | Activity of CHK inhibitor as a single agent at the constant concentration used ([3]; 0.33 uM, determined previously)
5.8 | 19.4 | 1.9 | 17.6 | 4.1 | 3.6 | O=C(c1cc(Cc2n[nH]c(=O)c3ccccc23)ccc1F)N1CCN(C(=O)C2CC2)CC1 [PARP inhibitor, 4-[3-(4-Cyclopropanecarbonyl-piperazine-1-carbonyl)-4-fluoro-benzyl]-2H-phthalazin-1-one] | 22 |  |  |  |  |  |  | 
 |  |  |  |  |  | NC(=O)Nc1cc(-c2cccc(F)c2)sc1C(=O)N[C@H]1CCCNC1 [CHK inhibitor, 5-(3-Fluoro-phenyl)-3-ureido-thiophene-2-carboxylic acid (S)-piperidin-3-ylamide] |  | 15 | 22 | little or no activity | 2 | found dead | 1 | little or no activity
